Measurements taken from patent US20240300948A1, “Heterocyclic Compounds As Kinase Inhibitors” (Incyte Corporation, priority 2023, published 2024).

Legend:
[1] = target: T1, catalytic domain (JH1, amino acids 826-1132) of human JAK2 (Homo sapiens, UniProt O60674); test: JAK2 LanthaScreen JH1 binding assay; conditions: 50 nM tracer, 2 hours at 25° C., read-out: JH1 BIND IC50
T1 construct: catalytic domain (JH1, amino acids 826-1132) of human JAK2; FLAG (N); purchased Carna Biosciences 08-445-20N; host or cells: baculovirus expression system
T1 sequence (O60674 826-1132): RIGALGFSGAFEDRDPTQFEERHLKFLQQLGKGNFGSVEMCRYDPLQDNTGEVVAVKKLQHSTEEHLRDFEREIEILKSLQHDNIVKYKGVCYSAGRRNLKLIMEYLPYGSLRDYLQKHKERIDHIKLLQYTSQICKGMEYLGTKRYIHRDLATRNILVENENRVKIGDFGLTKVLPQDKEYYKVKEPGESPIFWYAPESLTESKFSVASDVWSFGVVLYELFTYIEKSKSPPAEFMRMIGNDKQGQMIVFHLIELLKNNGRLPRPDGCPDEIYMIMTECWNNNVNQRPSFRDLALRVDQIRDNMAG
Procedure: Example A. JAK2 LanthaScreen […] Binding Assay
JAK2 JH1 binding assay utilizes catalytic domain (JH1, amino acids 826-1132) of human JAK2 expressed as N-terminal FLAG-tagged, biotinylated protein in a baculovirus expression system (Carna Biosciences, Product #08-445-20N). The assay was conducted in black 384-well polystyrene plates in a final reaction volume of 20 μL. JAK2 JH1 (1.5 nM) was incubated with compounds (100 nL serially diluted in DMSO) in the presence of 50 nM fluorescent JAK2-JH1 tracer and 0.5 nM Streptavidin-Tb cryptate (Cisbio Part #610SATLB) in assay buffer (50 mM Tris, pH=7.5, 10 mM MgCl2, 0.01% Brij-35, 0.1% BSA, 1 mM EGTA, 5% Glycerol and 5 mM DTT). Non-specific binding was accessed in the presence of 2 mM ATP. After incubation for 2 hours at 25° C., LanthaScreen signals were read on a PHERAstar FS plate reader (BMG LABTECH). Data was analyzed with IDBS XLfit and GraphPad Prism 5.0 software using a four parameter dose response curve to determine IC50 for each compound.

[2] = target: T2, pseudo-kinase domain (JH2, amino-acids 536-812 with 3 surface mutations W659A, W777A, F794H) of human Wild Type JAK2 (Homo sapiens, UniProt O60674, F794H/W659A/W777A); test: JAK2 LanthaScreen JH2-WT binding assay; conditions: 50 nM tracer, 1 hour at 25° C., read-out: JH2 BIND WT IC50
T2 construct: pseudo-kinase domain (JH2, amino-acids 536-812 with 3 surface mutations W659A, W777A, F794H); His (C); Avi (biotinylated) (C); purchased BPS Bioscience 79463; host or cells: baculovirus expression system
T2 sequence (O60674 536-812 W659A/W777A/F794H): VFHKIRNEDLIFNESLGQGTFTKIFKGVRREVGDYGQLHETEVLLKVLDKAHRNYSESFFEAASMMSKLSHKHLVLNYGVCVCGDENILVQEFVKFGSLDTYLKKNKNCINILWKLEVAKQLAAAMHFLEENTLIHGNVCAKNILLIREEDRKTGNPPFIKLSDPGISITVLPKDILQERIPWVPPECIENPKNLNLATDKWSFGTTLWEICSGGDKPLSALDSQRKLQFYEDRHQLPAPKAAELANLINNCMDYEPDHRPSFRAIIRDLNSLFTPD
Procedure: Example B. JAK2 LanthaScreen JH2-WT Binding Assay
(§1) JAK2 JH2-WT binding assay utilizes pseudo-kinase domain (JH2, amino-acids 536-812 with 3 surface mutations W659A, W777A, F794H) of human Wild Type JAK2 expressed as C-terminal His-Avi-tagged, biotinylated protein in a baculovirus expression system (BPS Bioscience, Catalog #79463). The assay was conducted in black 384-well polystyrene plates in a final reaction volume of 20 μL. JAK2 JH2-WT (0.145 nM) was incubated with compounds (100 nL serially diluted in DMSO) in the presence of 50 nM Fluorescent JAK2-JH2 Tracer (MedChem Express Catalog #HY-102055) and 0.25 nM Streptavidin-Tb cryptate (Cisbio Part #610SATLB) in assay buffer (50 mM Tris, pH=7.5, 10 mM MgCl2, 0.01% Brij-35, 0.1% BSA, 1 mM EGTA, 5% Glycerol and 5 mM DTT). Non-specific binding was accessed in the presence of 2 mM ATP. After incubation for 1 hour at 25° C., LanthaScreen signals were read on a PHERAstar FS plate reader (BMG LABTECH). Data was analyzed with IDBS XLfit and GraphPad Prism 5.0 software using a four parameter dose response curve to determine IC50 for each compound.

[3] = target: T3, pseudo-kinase domain (JH2, amino-acids 536-812 with 3 surface mutations W659A, W777A, F794H) of human V617F mutant JAK2 (Homo sapiens, UniProt O60674, F794H/V617F/W659A/W777A); test: JAK2 LanthaScreen JH2-V617F binding assay; conditions: 50 nM tracer, 1 hour at 25° C., read-out: JH2 BIND V617F IC50
T3 construct: pseudo-kinase domain (JH2, amino-acids 536-812 with 3 surface mutations W659A, W777A, F794H); His (C); Avi (biotinylated) (C); purchased BPS Bioscience 79498; host or cells: baculovirus expression system
T3 sequence (O60674 536-812 V617F/W659A/W777A/F794H): as the sequence (O60674 536-812 W659A/W777A/F794H) above, with V82F counted along it
Procedure: Example C. JAK2 LanthaScreen JH2-V617F Binding Assay
as §1, with “JH2-V617F” for “JH2-WT”, “V617F mutant” for “Wild Type”, “#79498).” for “#79463).”, “JH2-V617F (0.26” for “JH2-WT (0.145”

SMILES | IC50 [1] [nM] | IC50 [2] [nM] | IC50 [3] [nM]
COC(=O)N1CC2(CCC(N3C(=O)NCc4cnc5[nH]c(-c6cnn(C)c6)c(-c6ccc7c(cnn7C(C)C)c6)c5c43)CC2)C1 [Example 18, Methyl 7-(9-(1-isopropyl-1H-indazol-5-yl)-8-(1-methyl-1H-pyrazol-4-yl)-2-oxo-2,3,4,7-tetrahydro-1H-pyrrolo[3′,2′:5,6]pyrido[4,3-d]pyrimidin-1-yl)-2-azaspiro[3.5] nonane-2-carboxylate] | 100 to 500 | 10 to 100 | 10 to 100
COC(=O)N[C@@H]1CC[C@@H](N2C(=O)NCc3cnc4[nH]c(-c5cnn(C)c5)c(-c5ccc6c(cnn6C(C)C)c5)c4c32)C1 [Example 30, Methyl ((1R,3R)-3-(9-(1-isopropyl-1H-indazol-5-yl)-8-(1-methyl-1H-pyrazol-4-yl)-2-oxo-2,3,4,7-tetrahydro-1H-pyrrolo[3′,2′:5,6]pyrido[4,3-d]pyrimidin-1-yl)cyclopentyl) carbamate] | > 1000 | ≤ 10 | ≤ 10
COC(=O)N[C@H]1C[C@H](N2C(=O)NC(C)c3cnc4[nH]c(-c5cnn(C)c5)c(-c5ccc6c(cnn6C(C)C)c5)c4c32)C1 (mixture of isomers) [Example 38, Methyl ((1r,3r)-3-(9-(1-isopropyl-1H-indazol-5-yl)-4-methyl-8-(1-methyl-1H-pyrazol-4-yl)-2-oxo-2,3,4,7-tetrahydro-1H-pyrrolo[3′,2′:5,6]pyrido[4,3-d]pyrimidin-1-yl)cyclobutyl)carbamate] | > 1000 | 10 to 100 | 10 to 100
COC(=O)N[C@@H]1CC[C@@H](N2C(=O)NCc3cnc4[nH]c(-c5cnn(C)c5)c(-c5cccc(F)c5)c4c32)C1 [Example 31, Methyl ((1R,3R)-3-(9-(3-fluorophenyl)-8-(1-methyl-1H-pyrazol-4-yl)-2-oxo-2,3,4,7-tetrahydro-1H-pyrrolo[3′,2′:5,6]pyrido[4,3-d]pyrimidin-1-yl)cyclopentyl) carbamate] | > 1000 | 10 to 100 | 100 to 500
CC(C)n1ncc2cc(-c3c(-c4cnn(C)c4)[nH]c4ncc5c(c34)N(C3CCN(S(C)(=O)=O)CC3)C(=O)NC5)ccc21 [Example 16, 9-(1-Isopropyl-1H-indazol-5-yl)-8-(1-methyl-1H-pyrazol-4-yl)-1-(1-(methylsulfonyl)piperidin-4-yl)-1,3,4,7-tetrahydro-2H-pyrrolo [3′,2′:5,6]pyrido[4,3-d]pyrimidin-2-one] | > 1000 | 10 to 100 | 10 to 100
CC(C)n1ncc2cc(-c3c(-c4cnn(C)c4)[nH]c4ncc5c(c34)N([C@@H]3CC[C@@H](NS(C)(=O)=O)C3)C(=O)NC5)ccc21 [Example 10, N-((1R,3R)-3-(9-(1-Isopropyl-1H-indazol-5-yl)-8-(1-methyl-1H-pyrazol-4-yl)-2-oxo-2,3,4,7-tetrahydro-1H-pyrrolo[3′,2′:5,6]pyrido[4,3-d]pyrimidin-1-yl)cyclopentyl) methanesulfonamide] | > 1000 | 10 to 100 | 100 to 500
COC(=O)N[C@@H]1CC[C@@H](N2C(=O)NCc3cnc4[nH]c(-c5cnn(C)c5)c(-c5ccc6c(cnn6CC6CC6)c5)c4c32)C1 [Example 23, Methyl ((1R,3R)-3-(9-(1-(cyclopropylmethyl)-1H-indazol-5-yl)-8-(1-methyl-1H-pyrazol-4-yl)-2-oxo-2,3,4,7-tetrahydro-1H-pyrrolo[3′,2′:5,6]pyrido[4,3-d]pyrimidin-1-yl)cyclopentyl) carbamate] | 100 to 500 | ≤ 10 | 10 to 100
COC(=O)N[C@H]1C[C@H](N2C(=O)NCc3cnc4[nH]c(-c5cc(C)nc(C)c5)c(-c5ccc6c(cnn6C(C)C)c5)c4c32)C1 [Example 35, Methyl ((1r,3r)-3-(8-(2,6-dimethylpyridin-4-yl)-9-(1-isopropyl-1H-indazol-5-yl)-2-oxo-2,3,4,7-tetrahydro-1H-pyrrolo[3′,2′:5,6]pyrido[4,3-d]pyrimidin-1-yl)cyclobutyl) carbamate] | > 1000 | 10 to 100 | 10 to 100
CNc1nc(=O)n([C@@H]2CC[C@@H](NC(=O)OC)C2)c2c1cnc1[nH]c(-c3cnn(C)c3)c(-c3ccc4c(cnn4C(C)C)c3)c12 [Example 42, Methyl ((1R,3R)-3-(9-(1-isopropyl-1H-indazol-5-yl)-8-(1-methyl-1H-pyrazol-4-yl)-4-(methylamino)-2-oxo-2,7-dihydro-1H-pyrrolo[3′,2′:5,6]pyrido[4,3-d]pyrimidin-1-yl)cyclopentyl)carbamate] | > 1000 | 10 to 100 | 10 to 100
CC(C)n1ncc2cc(-c3c(-c4cnn(C)c4)[nH]c4ncc5c(c34)N([C@H]3C[C@@H](NS(C)(=O)=O)C3)C(=O)NC5)ccc21 [Example 6, N-((1s,3s)-3-(9-(1-Isopropyl-1H-indazol-5-yl)-8-(1-methyl-1H-pyrazol-4-yl)-2-oxo-2,3,4,7-tetrahydro-1H-pyrrolo[3′,2′:5,6]pyrido[4,3-d]pyrimidin-1-yl)cyclobutyl) methanesulfonamide] | 100 to 500 | ≤ 10 | 10 to 100
COC(=O)N1CCC(N2C(=O)NCc3cnc4[nH]c(-c5cnn(C)c5)c(-c5ccc6c(cnn6C(C)C)c5)c4c32)CC1 [Example 14, Methyl 4-(9-(1-isopropyl-1H-indazol-5-yl)-8-(1-methyl-1H-pyrazol-4-yl)-2-oxo-2,3,4,7-tetrahydro-1H-pyrrolo[3′,2′:5,6]pyrido[4,3-d]pyrimidin-1-yl)piperidine-1-carboxylate] | > 1000 | 10 to 100 | 10 to 100
CC(C)n1ncc2cc(-c3c(-c4cnn(C)c4)[nH]c4ncc5c(c34)N([C@H]3CC[C@@H]3NS(C)(=O)=O)C(=O)NC5)ccc21 (racemic) [Example 7, N-(trans-2-(9-(1-Isopropyl-1H-indazol-5-yl)-8-(1-methyl-1H-pyrazol-4-yl)-2-oxo-2,3,4,7-tetrahydro-1H-pyrrolo[3′,2′:5,6]pyrido[4,3-d]pyrimidin-1-yl)cyclobutyl) methan esulfonamide] | > 1000 | 10 to 100 | 10 to 100
CC(C)COC(=O)N[C@@H]1CC[C@@H](N2C(=O)NCc3cnc4[nH]c(-c5cnn(C)c5)c(-c5ccc6c(cnn6C(C)C)c5)c4c32)C1 [Example 12, Isobutyl ((1R,3R)-3-(9-(1-isopropyl-1H-indazol-5-yl)-8-(1-methyl-1H-pyrazol-4-yl)-2-oxo-2,3,4,7-tetrahydro-1H-pyrrolo[3′,2′:5,6]pyrido[4,3-d]pyrimidin-1-yl)cyclopentyl) carbamate] | > 1000 | 10 to 100 | 10 to 100
